Molecules are shown by their SMILES. pEC50: −log10 of the molar value.

This assay concerns the target T1, human orexin-2 receptor (OX2R) (Homo sapiens, UniProt O43614).
T1 construct: expressed in transfected cells
T1 sequence (O43614 1-444): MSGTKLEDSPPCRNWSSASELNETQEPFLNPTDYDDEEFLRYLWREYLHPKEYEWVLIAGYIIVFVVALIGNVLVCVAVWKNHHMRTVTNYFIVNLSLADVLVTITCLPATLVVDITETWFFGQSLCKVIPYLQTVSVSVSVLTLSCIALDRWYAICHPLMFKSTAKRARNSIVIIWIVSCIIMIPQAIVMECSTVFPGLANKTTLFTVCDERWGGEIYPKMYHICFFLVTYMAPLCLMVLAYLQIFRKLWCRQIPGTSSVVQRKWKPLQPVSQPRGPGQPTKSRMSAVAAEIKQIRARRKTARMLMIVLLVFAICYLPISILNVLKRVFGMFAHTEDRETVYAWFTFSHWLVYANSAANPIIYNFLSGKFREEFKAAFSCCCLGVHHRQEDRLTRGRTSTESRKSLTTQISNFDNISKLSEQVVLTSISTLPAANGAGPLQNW
Description: Human OX2R IP1 assay. The format is cell-based. The conditions noted are these: T-Rex CHO cells stably overexpressing the human orexin-2 receptor; IP1 accumulation, 1 hr at 37 degrees C. How it is done: T-Rex CHO cells stably overexpressing the human orexin-2 receptor (OX2R) were induced overnight with 1 μg/mL of doxycycline in a T225 flask. 24 hours post induction, cells were lifted with accutase and plated into a 384-well proxy plate at 30,000 cells/well. Cells were then treated with different test compounds in 1× stimulation buffer containing 10 mM Hepes, 1 mM CaCl2), 0.5 mM MgCl2, 4.2 mM KCl, 146 mM NaCl, 5.5 mM glucose, and 50 mM LiCl, pH 7.4, for 1 hr at 37 degrees C. Following incubation, the reaction was terminated by the addition of detection mix, which is composed of IP1-d2 and anti-IP1-cryptate diluted in lysis buffer as well as 1× stimulation buffer. The plates were allowed to incubate for 1 hour at room temperature and were then read in the ENVISION® multimode plate reader, measuring inositol phosphate levels.
Cisbio IP1 is a cell-based functional assay quantifying the accumulation of inositol monophosphate (IP), a metabolite released as a result of orexin 2 receptor activation through the phospholipase C-Gq signaling pathway. This is a competitive immunoassay in which the IP1 produced by the cells upon receptor activation competes with the IP1 analog coupled to the d2 fluorophore (acceptor) for binding to an anti-IP1 monoclonal antibody labeled with Eucryptate (donor). The measured HTRF-FRET based signal is inversely proportional to the IP1 concentration produced.
The EC50 values reported in Table 2 were obtained according to the human OX2R IP1 assay described above. Data are the mean EC50 values ±S.E.M.
A word on the pEC50: it is −log10 of the EC50, conventionally taken in molar units. A low value points to a large EC50. With `O=C(N[C@H]1CCCN2C(=O)COc3ccccc3C3CCC(CC3)OCC12)C1CCCCO1` (some centres unmarked) [Compound 20], the pEC50 is under 6.00.

Take `CN(C)C(=O)C(=O)N[C@H]1CCCN2C(=O)COc3ccccc3[C@H]3CC[C@H](CC3)OC[C@@H]12` [Compound 7]: the pEC50 was over 7.00.

For the molecule `CN1CCC1C(=O)N[C@H]1CCCN2C(=O)COc3ccccc3C3CCC(CC3)OCC12` (some centres unmarked) [Compound 19], the pEC50 is under 6.00.

Molecule `O=C(N[C@H]1CCCN2C(=O)COc3ccccc3C3CCC(CC3)OC[C@@H]12)C1CCOC1` (stereo in doubt) [Compound 5] had a pEC50 of 6.00 to 7.00.

`CN1CCOC(C(=O)N[C@H]2CCCN3C(=O)COc4ccccc4C4CCC(CC4)OCC23)C1` (some centres unmarked) [Compound 21] showed a pEC50 of under 6.00.

For the molecule `O=C(N[C@H]1CCCN2C(=O)COc3ccccc3C3CCC(CC3)OC[C@@H]12)C1CCCOC1` (stereo in doubt) [Compound 11], the pEC50 is 6.00 to 7.00.

`Cc1cccc2c1C1CCC(CC1)OC[C@H]1[C@@H](NC(=O)C3CCCO3)CCCN1C(=O)CO2` (stereo in doubt) [Compound 14] showed a pEC50 of over 7.00.

With `Cc1cccc2c1C1CCC(CC1)OCC1[C@@H](NC(=O)C3CCCO3)CCCN1C(=O)CO2` (some centres unmarked) [Compound 15], the pEC50 is over 7.00.

`Cc1ccnc2c1C1CCC(CC1)OC[C@H]1[C@@H](NC(=O)C3CCCO3)CCCN1C(=O)CO2` (stereo in doubt) [Compound 13]: the pEC50 is over 7.00.

`O=C(N[C@H]1CCCN2C(=O)COc3ccccc3C3CCC(CC3)OC[C@@H]12)C1CCCOC1` (stereo in doubt) [Compound 4] had a pEC50 of 6.00 to 7.00.

`O=C(N[C@H]1CCCN2C(=O)COc3ccccc3C3CCC(CC3)OC[C@@H]12)C1CCO1` (stereo in doubt) [Compound 9] gave a pEC50 of 6.00 to 7.00.

`CN1CCOC(C(=O)N[C@H]2CCCN3C(=O)COc4ccccc4C4CCC(CC4)OCC23)C1` (some centres unmarked) [Compound 25]: the pEC50 was under 6.00.

Turning to `O=C(N[C@H]1CCCN2C(=O)COc3ccccc3C3CCC(CC3)OC[C@@H]12)C1COCCO1` (stereo in doubt) [Compound 1], the pEC50 is over 7.00.

As for `O=C(N[C@H]1CCCN2C(=O)COc3ccccc3C3CCC(CC3)OC[C@@H]12)C1CCCCO1` (stereo in doubt) [Compound 2], the pEC50 is over 7.00.

`CN1CCC1C(=O)N[C@H]1CCCN2C(=O)COc3ccccc3C3CCC(CC3)OCC12` (some centres unmarked) [Compound 23] showed a pEC50 of under 6.00.

Regarding `O=C(N[C@H]1CCCN2C(=O)COc3ccccc3C3CCC(CC3)OC[C@@H]12)C1COCCO1` (stereo in doubt) [Compound 8], the pEC50 is 6.00 to 7.00.

For `O=C(N[C@H]1CCCN2C(=O)COc3ccccc3C3CCC(CC3)OC[C@@H]12)C1CCOC1` (stereo in doubt) [Compound 6], the pEC50 was 6.00 to 7.00.

As for `O=C(N[C@H]1CCCN2C(=O)COc3ccccc3C3CCC(CC3)OC[C@@H]12)C1CCO1` (stereo in doubt) [Compound 12], the pEC50 was over 7.00.

`COC1(C(=O)N[C@H]2CCCN3C(=O)COc4ccccc4[C@H]4CC[C@H](CC4)OC[C@@H]23)CC1` [Compound 89]: the pEC50 is under 6.00.

The molecule `CN1CCCC1C(=O)N[C@H]1CCCN2C(=O)COc3ccccc3C3CCC(CC3)OCC12` (some centres unmarked) [Compound 22] gave a pEC50 of under 6.00.

`CN1CCCC1C(=O)N[C@H]1CCCN2C(=O)COc3ccccc3C3CCC(CC3)OCC12` (some centres unmarked) [Compound 24] showed a pEC50 of under 6.00.

In turn, `O=C(N[C@H]1CCCN2C(=O)COc3ccccc3C3CCC(CC3)OC[C@@H]12)C1CCCO1` (stereo in doubt) [Compound 10] showed a pEC50 of over 7.00.

For the molecule `O=C(N[C@H]1CCCN2C(=O)COc3ccccc3[C@H]3CC[C@H](CC3)OC[C@@H]12)C1COC1` [Compound 16], the pEC50 was over 7.00.

`O=C(N[C@H]1CCCN2C(=O)COc3ccccc3[C@H]3CC[C@H](CC3)OC[C@@H]12)c1ncco1` [Compound 18]: the pEC50 is under 6.00.

With `Cc1ccnc2c1C1CCC(CC1)OCC1[C@@H](NC(=O)C3CCCO3)CCCN1C(=O)CO2` (some centres unmarked) [Compound 17], the pEC50 was over 7.00.

Regarding `COCC(=O)N[C@H]1CCCN2C(=O)COc3ccccc3[C@H]3CC[C@H](CC3)OC[C@@H]12` (stereo in doubt) [Compound 3], the pEC50 is over 7.00.

(Values after US20240124485A1, “SUBSTITUTED AMIDE MACROCYCLIC COMPOUNDS WITH OREXIN-2 RECEPTOR AGONIST ACTIVITY” (Alkermes, Inc., priority 2021, published 2024).)
